Source: ChEMBL document CHEMBL4118189, “Discovery of novel N-hydroxy-2-arylisoindoline-4-carboxamides as potent and selective inhibitors of HDAC11” (Bioorg Med Chem Lett, 2018)
Values after ≈ are worked out from the molar mass of the structure shown.

Columns and labels:
[1] = Kinetic solubility of the compound at pH 7.4; type: physicochemical; settings: buffer, read-out: Kinetic_solubility
[2] = target: T1, Protein deacetylase HDAC6 (Homo sapiens, UniProt Q9UBN7); test: Inhibition of full length recombinant human HDAC6 using fluorescent-labeled peptide as substrate by electrophoretic mobility shift assay
T1 sequence (Q9UBN7 whole entry): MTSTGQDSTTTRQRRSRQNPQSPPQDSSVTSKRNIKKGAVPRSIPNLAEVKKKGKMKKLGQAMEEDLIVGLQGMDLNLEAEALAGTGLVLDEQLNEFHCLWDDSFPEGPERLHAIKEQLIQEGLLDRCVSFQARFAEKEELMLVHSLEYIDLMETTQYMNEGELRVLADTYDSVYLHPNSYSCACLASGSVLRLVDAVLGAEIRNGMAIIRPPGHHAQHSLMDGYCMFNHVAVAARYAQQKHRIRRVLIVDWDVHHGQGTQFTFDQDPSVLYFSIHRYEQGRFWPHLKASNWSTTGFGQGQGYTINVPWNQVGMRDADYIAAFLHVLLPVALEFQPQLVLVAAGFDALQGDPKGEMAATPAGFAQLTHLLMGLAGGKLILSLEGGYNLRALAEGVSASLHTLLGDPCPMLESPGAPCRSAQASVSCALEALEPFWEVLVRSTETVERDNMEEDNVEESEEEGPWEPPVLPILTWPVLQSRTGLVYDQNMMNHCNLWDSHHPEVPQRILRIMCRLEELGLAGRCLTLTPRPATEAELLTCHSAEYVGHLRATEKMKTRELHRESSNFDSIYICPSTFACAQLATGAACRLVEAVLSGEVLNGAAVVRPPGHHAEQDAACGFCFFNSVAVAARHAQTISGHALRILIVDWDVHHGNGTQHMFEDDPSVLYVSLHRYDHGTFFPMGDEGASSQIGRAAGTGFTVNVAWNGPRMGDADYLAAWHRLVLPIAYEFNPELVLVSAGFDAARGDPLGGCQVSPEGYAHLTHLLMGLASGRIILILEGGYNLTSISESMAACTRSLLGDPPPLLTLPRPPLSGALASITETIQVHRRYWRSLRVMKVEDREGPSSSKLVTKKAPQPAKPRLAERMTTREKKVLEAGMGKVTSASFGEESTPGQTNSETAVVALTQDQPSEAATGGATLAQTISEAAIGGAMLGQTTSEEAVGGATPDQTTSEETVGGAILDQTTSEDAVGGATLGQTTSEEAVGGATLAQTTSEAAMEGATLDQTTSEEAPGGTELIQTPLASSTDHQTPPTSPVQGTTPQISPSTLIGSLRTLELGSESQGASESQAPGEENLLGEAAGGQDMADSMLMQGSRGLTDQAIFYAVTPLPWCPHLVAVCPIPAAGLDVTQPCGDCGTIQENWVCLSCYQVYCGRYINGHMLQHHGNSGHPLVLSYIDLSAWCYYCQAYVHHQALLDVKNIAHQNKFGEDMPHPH

Histone deacetylase 11 = target: T2, Histone deacetylase 11 (Homo sapiens, UniProt Q96DB2); test: Inhibition of NanoLuc-tagged HDAC11 (unknown origin) by BRET assay
T2 sequence (Q96DB2 whole entry): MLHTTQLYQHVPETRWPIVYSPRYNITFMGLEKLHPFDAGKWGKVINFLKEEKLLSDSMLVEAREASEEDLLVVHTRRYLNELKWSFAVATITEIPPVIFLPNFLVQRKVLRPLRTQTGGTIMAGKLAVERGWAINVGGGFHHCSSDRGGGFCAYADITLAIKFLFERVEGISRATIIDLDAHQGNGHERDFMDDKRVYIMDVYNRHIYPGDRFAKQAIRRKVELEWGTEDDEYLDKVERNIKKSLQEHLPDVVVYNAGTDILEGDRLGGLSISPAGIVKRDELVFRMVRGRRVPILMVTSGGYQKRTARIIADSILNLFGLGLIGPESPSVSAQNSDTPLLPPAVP

[3] = Intrinsic clearance in mouse liver microsomes; type: ADME, microsome; settings: read-out: CLH

solubility kinetic [1]: 0.3 µM (≈ 0.101 µg/mL)
IC50 [2]: > 10 µM
IC50 (Histone deacetylase 11): > 25 µM
microsomal CLint [3]: 7 µL/min/mg
SMILES: CC1(C)c2cccc(C(N)=O)c2CN1c1cnc(C(F)(F)F)cn1
